# Where two headings read alike, the source gives them in different places.
# Tested on: weeds
# Test: Actual control effects and combined effects of mixtures of active ingredients (i) and (ii), stem-leaf treatment, Gowing method
# Format: in vivo
# Conditions: 20 days
# Description: According to the actual control effect and the property of the herbicides, the balance of the formula and other factors, the optimal ratio was determined. In the calculation formula: X represents the fresh weight inhibition rate when the active ingredient (i) is used in an amount of P; and Y represents the fresh weight inhibition rate when the active ingredient (ii) is used in an amount of Q. The statistical results are shown in Tables 9-11 below.
# [1] = Leptochloa chinensis, (ii) 15 g a.i./mu
# [2] = Monochoria vaginalis, (ii) 1 g a.i./mu
# [3] = Cyperus difformis, (ii) 1 g a.i./mu
# [4] = Cyperus difformis, (ii) 3 g a.i./mu
# [5] = 480 h, Echinochloa phyllopogon, (ii) 3 g a.i./mu, stem-leaf treatment, read-out: Control effect of (ii) alone at corresponding dose
# [6] = 480 h, Echinochloa phyllopogon, (ii) 15 g a.i./mu, stem-leaf treatment, read-out: Control effect of (ii) alone at corresponding dose
# [7] = Echinochloa phyllopogon, (ii) 3 g a.i./mu
# [8] = Echinochloa phyllopogon, (ii) 15 g a.i./mu
# [9] = Echinochloa phyllopogon, (ii) 3 g a.i./mu, stem-leaf treatment
# [10] = Echinochloa phyllopogon, (ii) 30 g a.i./mu
# [11] = Monochoria vaginalis, (ii) 3 g a.i./mu
# [12] = Monochoria vaginalis, (ii) 3 g a.i./mu, stem-leaf treatment
# [13] = Digitaria sanguinalis, (ii) 3 g a.i./mu, stem-leaf treatment
structure (smiles),measurement,setting,value
CC1(C)CON(Cc2ccccc2Cl)C1=O [Clomazone],pest or weed control at 45 g/ha,"Dinebra chinensis, 480 h, Leptochloa chinensis, (ii) 3 g a.i./mu, read-out: Control effect of (ii) alone at corresponding dose",16.8%
same,pest or weed control at […],"Dinebra chinensis, 480 h, Leptochloa chinensis, (ii) 15 g a.i./mu, stem-leaf treatment, read-out: Control effect of (ii) alone at corresponding dose",53.6%
same,Control effect of (ii) alone at corresponding dose,[1],53.6%
O=C(O)c1nc(Cl)ccc1Cl [Clopyralid],Control effect of (ii) alone at corresponding dose,[2],49.6%
same,pest or weed control at 15 g/ha,"Pontederia vaginalis, 480 h, Monochoria vaginalis, (ii) 1 g a.i./mu, stem-leaf treatment, read-out: Control effect of (ii) alone at corresponding dose",49.6%
same,pest or weed control at 18 g/ha,"Pontederia vaginalis, 480 h, Monochoria vaginalis, (ii) 1.2 g a.i./mu, read-out: Control effect of (ii) alone at corresponding dose",56.3%
CS(=O)(=O)c1ccc(C(=O)C2C(=O)CCCC2=O)c([N+](=O)[O-])c1 [Mesotrione],pest or weed control at 9 g/ha,"480 h, Cyperus difformis, (ii) 0.6 g a.i./mu, read-out: Control effect of (ii) alone at corresponding dose",29.5%
same,pest or weed control at 15 g/ha,"480 h, Cyperus difformis, (ii) 1 g a.i./mu, stem-leaf treatment, read-out: Control effect of (ii) alone at corresponding dose",50.4%
same,Control effect of (ii) alone at corresponding dose,[3],50.4%
CCN(CC)C(=O)SCc1ccc(Cl)cc1 [Benthiocarb],Control effect of (ii) alone at corresponding dose,[4],15.2%
same,Control effect of (ii) alone at corresponding dose,"Cyperus difformis, (ii) 3 g a.i./mu, stem-leaf treatment",15.2%
same,Control effect of (ii) alone at corresponding dose,"Cyperus difformis, (ii) 30 g a.i./mu",50.3%
COP(=S)(OC)SCC(=O)N(c1ccc(Cl)cc1)C(C)(C)C [Anilofos],pest or weed control at 45 g/ha,"Dinebra chinensis, 480 h, Leptochloa chinensis, (ii) 3 g a.i./mu, stem-leaf treatment, read-out: Control effect of (ii) alone at corresponding dose",30.8%
same,pest or weed control at 450 g/ha,"Dinebra chinensis, 480 h, Leptochloa chinensis, (ii) 30 g a.i./mu, read-out: Control effect of (ii) alone at corresponding dose",62.6%
same,Control effect of (ii) alone at corresponding dose,"Leptochloa chinensis, (ii) 3 g a.i./mu",30.8%
Cc1nn(C)cc1C(=O)Oc1c(C(=O)c2ccc(C(F)(F)F)cc2S(C)(=O)=O)c(C)nn1C [Shuangzuocaotong],Control effect of (ii) alone at corresponding dose,"Digitaria sanguinalis, (ii) 8 g a.i./mu, stem-leaf treatment",75.1%
same,Control effect of (ii) alone at corresponding dose,"Echinochloa phyllopogon, (ii) 0.6 g a.i./mu",7.8%
same,Control effect of (ii) alone at corresponding dose,"Echinochloa phyllopogon, (ii) 0.6 g a.i./mu, stem-leaf treatment",7.8%
same,Control effect of (ii) alone at corresponding dose,"Echinochloa phyllopogon, (ii) 8 g a.i./mu",70.9%
same,Control effect of (ii) alone at corresponding dose,"Echinochloa phyllopogon, (ii) 8 g a.i./mu, stem-leaf treatment",70.9%
CN(C(=O)COc1nc2ccccc2s1)c1ccccc1 [Mefenacet],pest or weed control at 45 g/ha,[5],19.2%
same,pest or weed control at […],[6],46.7%
same,Control effect of (ii) alone at corresponding dose,[7],19.2%
same,Control effect of (ii) alone at corresponding dose,[8],46.7%
O=C1C(Cl)C(CCl)CN1c1cccc(C(F)(F)F)c1 (stereo not drawn) [Fluorochloridone],Control effect of (ii) alone at corresponding dose,[7],9.1%
same,Control effect of (ii) alone at corresponding dose,[9],9.1%
same,Control effect of (ii) alone at corresponding dose,[10],52.3%
"O=C(O)CCCOc1ccc(Cl)cc1Cl [2,4-D butyric acid]",Control effect of (ii) alone at corresponding dose,[11],23.5%
same,Control effect of (ii) alone at corresponding dose,[12],23.5%
same,Control effect of (ii) alone at corresponding dose,"Monochoria vaginalis, (ii) 15 g a.i./mu",65.3%
same,Control effect of (ii) alone at corresponding dose,"Monochoria vaginalis, (ii) 15 g a.i./mu, stem-leaf treatment",65.3%
CCSC(=O)N1CCCCCC1 [Molinate],pest or weed control at 45 g/ha,[5],7.8%
same,pest or weed control at 450 g/ha,"480 h, Echinochloa phyllopogon, (ii) 30 g a.i./mu, read-out: Control effect of (ii) alone at corresponding dose",40.6%
same,Control effect of (ii) alone at corresponding dose,[7],7.8%
O=C1CCCC(=O)C1C(=O)c1c(Cl)ccc2cc(Cl)cnc12 [Quintrione],Control effect of (ii) alone at corresponding dose,[13],15.2%
same,Control effect of (ii) alone at corresponding dose,[7],15.8%
same,Control effect of (ii) alone at corresponding dose,[9],15.8%
same,Control effect of (ii) alone at corresponding dose,[10],66.7%
same,Control effect of (ii) alone at corresponding dose,"Echinochloa phyllopogon, (ii) 30 g a.i./mu, stem-leaf treatment",66.7%
CCC(C)Nc1c([N+](=O)[O-])cc(C(C)(C)C)cc1[N+](=O)[O-] (stereo not drawn) [Butralin],pest or weed control at 45 g/ha,"480 h, Cyperus difformis, (ii) 3 g a.i./mu, stem-leaf treatment, read-out: Control effect of (ii) alone at corresponding dose",16.4%
same,pest or weed control at 450 g/ha,"480 h, Cyperus difformis, (ii) 30 g a.i./mu, read-out: Control effect of (ii) alone at corresponding dose",46.8%
same,Control effect of (ii) alone at corresponding dose,[4],16.4%
COc1cc(OC)nc(NC(=O)NS(=O)(=O)c2c(C3=NOCC(C)O3)c(Cl)nn2C)n1 (stereo not drawn) [Metazosulfuron],Control effect of (ii) alone at corresponding dose,[2],25.6%
same,Control effect of (ii) alone at corresponding dose,"Monochoria vaginalis, (ii) 1 g a.i./mu, stem-leaf treatment",25.6%
same,Control effect of (ii) alone at corresponding dose,"Monochoria vaginalis, (ii) 1.2 g a.i./mu",30.3%
CC(C)c1nn(C(=O)NC(C)(C)C)c(=O)n1N [Amicarbazone],Control effect of (ii) alone at corresponding dose,[11],23.3%
same,Control effect of (ii) alone at corresponding dose,[12],23.3%
same,Control effect of (ii) alone at corresponding dose,"Monochoria vaginalis, (ii) 10 g a.i./mu",51.6%
same,Control effect of (ii) alone at corresponding dose,"Monochoria vaginalis, (ii) 10 g a.i./mu, stem-leaf treatment",51.6%
CCNc1nc(Cl)nc(NC(C)C)n1 [Atrazine],pest or weed control at 9 g/ha,"480 h, Echinochloa phyllopogon, (ii) 0.6 g a.i./mu, read-out: Control effect of (ii) alone at corresponding dose",2.3%
same,pest or weed control at […],[6],30.6%
same,Control effect of (ii) alone at corresponding dose,[8],30.6%
Cn1[nH]c(C2CC2)c(C(=O)c2ccc(C(F)(F)F)c(N3CCCCC3=O)c2Cl)c1=O [Huanbifucaotong],Control effect of (ii) alone at corresponding dose,[13],6.2%
same,Control effect of (ii) alone at corresponding dose,"Leptochloa chinensis, (ii) 0.5 g a.i./mu",9.2%
same,Control effect of (ii) alone at corresponding dose,"Leptochloa chinensis, (ii) 0.5 g a.i./mu, stem-leaf treatment",9.2%
same,Control effect of (ii) alone at corresponding dose,[1],76.2%
CCCCCCCCSC(=O)Oc1cc(Cl)nnc1-c1ccccc1 [Pyridate],pest or weed control at 27 g/ha,"480 h, Cyperus difformis, (ii) 1.8 g a.i./mu, read-out: Control effect of (ii) alone at corresponding dose",12.9%
same,pest or weed control at […],"480 h, Cyperus difformis, (ii) 15 g a.i./mu, stem-leaf treatment, read-out: Control effect of (ii) alone at corresponding dose",53.2%
same,Control effect of (ii) alone at corresponding dose,"Cyperus difformis, (ii) 15 g a.i./mu",53.2%
CCCCOC(=O)[C@@H](C)Oc1ccc(Oc2ccc(C#N)cc2F)cc1 [Cyhalofop-butyl],pest or weed control at 45 g/ha,[5],12.2%
same,pest or weed control at […],"480 h, Echinochloa phyllopogon, (ii) 15 g a.i./mu, read-out: Control effect of (ii) alone at corresponding dose",45.1%
same,Control effect of (ii) alone at corresponding dose,[7],12.2%
CCC1(CC2(c3cccc(Cl)c3)CO2)C(=O)c2ccccc2C1=O (stereo not drawn) [Indanofan],Control effect of (ii) alone at corresponding dose,"Monochoria vaginalis, (ii) 5 g a.i./mu",20.8%
same,pest or weed control at 75 g/ha,"Pontederia vaginalis, 480 h, Monochoria vaginalis, (ii) 5 g a.i./mu, stem-leaf treatment, read-out: Control effect of (ii) alone at corresponding dose",20.8%
same,pest or weed control at 180 g/ha,"Pontederia vaginalis, 480 h, Monochoria vaginalis, (ii) 12 g a.i./mu, read-out: Control effect of (ii) alone at corresponding dose",63.1%
CS(=O)(=O)c1ccc(C(=O)C2C(=O)CCCC2=O)c(Cl)c1COCC1CCCO1 (stereo not drawn) [Tefuryltrione],Control effect of (ii) alone at corresponding dose,[3],37.4%
same,Control effect of (ii) alone at corresponding dose,"Cyperus difformis, (ii) 1 g a.i./mu, stem-leaf treatment",37.4%
same,Control effect of (ii) alone at corresponding dose,"Cyperus difformis, (ii) 1.8 g a.i./mu",63.2%
O=C(O)c1c(Cl)ccc2cc(Cl)cnc12 [Quinclorac],pest or weed control at 45 g/ha,[5],35.2%
same,pest or weed control at […],[6],52.9%
same,Control effect of (ii) alone at corresponding dose,[7],35.2%
same,Control effect of (ii) alone at corresponding dose,[8],52.9%
CCCc1ccc2nc(Cl)c(S(=O)(=O)NC(=O)Nc3nc(OC)cc(OC)n3)n2n1 [Propyrisulfuron],Control effect of (ii) alone at corresponding dose,"Cyperus difformis, (ii) 0.6 g a.i./mu",19.5%
same,Control effect of (ii) alone at corresponding dose,"Cyperus difformis, (ii) 1.5 g a.i./mu",46.3%
same,Control effect of (ii) alone at corresponding dose,"Cyperus difformis, (ii) 1.5 g a.i./mu, stem-leaf treatment",46.3%
